From patent US20060088545A1, “Use of inhibitors of the protease of the human immunodeficiency virus (hiv) to block cell migration and/or invasion, tissue infiltration and oedema for the therary of diseases associated therewith” (priority 2001, published 2006)
“Also recorded” adds a separate entry of the source. Where two headings read alike, the source gives them in different places.

How the values were obtained:
smooth muscle cells = experiment: Invasion assay of smooth muscle cells in response to bFGF; type: cell-based, human
Description: Assays have been essentially performed as described in key to FIGS. 1 and 3. […] Data of duplicate experiments (mean) are shown.

[1] = system: angiogenesis induced by bFGF or VEGF in the chorioallantoic membrane; conditions: for VEGF-induced angiogenesis, % of the untreated VEGF control / bFGF-induced angiogenesis, % of the untreated bFGF control / Average vessel (number/mm^2 ± SD): HIV-PI 10 μM; for basal CAM vascularization: drug administered alone; for toxicity in CAM: in vivo
Protocol: CAM assays were performed with 1 mm^3 sterilized gelatin sponges (Gelfoam; Upjohn Co, Kalamazoo, Mich.) adsorbed with bFGF or VEGF (1 μg or 100 ng, respectively) in 5 μl of PBS, and with buffer, HIV-PI (10 μM) or taxol (250 nM) (Bristol-Myers Squibb Co., Princeton, N.J.) as described (Ribatti et al, Int. J. Dev. Biol., 1996). CAM were examined daily until day 12 under an Olympus SZX9 stereomicroscope. Images (1024×1024 pixels) were captured at a distance of 2 mm from the edge of the sponge using a cooled digital CCD Hamamatsu ORCA camera (Hamamatsu Photonics Italia, Arese, Italy). Vessel number was quantified with the ImageProPlus 4.0 imaging software (Media Cybernetics, Silver Spring, Md.) in 3 randomly selected areas per egg ([…]).
Results are expressed as the average number of vessels/mm^2±SD from the indicated number of CAM per experimental condition.

KS cells [2] = experiment: KS cell migration, Boyden chamber, bFGF chemo-attractant; type: cell-based, human; conditions: 0.01 μM-1 μM, 5 days
Protocol: (§1) In contrast, both drugs inhibited KS cell capability of invading a matrigel substrate in a dose-dependent manner. In particular, both HIV-PI inhibit the invasion of KS cells by 30-40% (p<0.05) (Table 4 and FIG. 13).
(§2) Migration and invasion assays were carried out essentially as detailed in the key to FIGS. 2 and 3.

KS cells [3] = experiment: KS cell invasion of matrigel, Boyden chamber, bFGF chemo-attractant; type: cell-based, human; conditions: KS3, KS8, KS12 strains; dose-dependent
Protocol: Both drugs inhibited the capacity of the KS cells to invade the Matrigel membrane in a dose-dependent manner. In particular, both the HIV-PI inhibited invasion as compared to the levels observed in control KS cells (p<0.05).
The assay was performed as described in FIG. 3. […] The cells were harvested and then plated in duplicate (5×10^5 in a culture medium containing 0.05% BSA) in the upper compartment of the Boyden chamber, always in the presence of HIV-PI or buffer. bFGF (20 ng/ml) was placed in the bottom compartment as a chemo-attractant.
After 6 hours the cells that invaded the matrigel membrane were stained and counted as described in the key to FIG. 3.
as §1, §2

[4] = system: angioproliferative KS-like lesions induced by KS cells; experiment: KS-like lesions induced by inoculation of KS cells in nude mice (drug pre-treatment); type: in vivo; conditions: KS cells 3×10^6; treatment starting 2 days before cell inoculation
Description: At the time of sacrifice, the sites of inoculation were examined to check for the presence of macroscopic angioproliferative lesions as described in the key to FIG. 12 and Table 5.
These angioproliferative lesions are transient, of murine origin and are developed in response to cytokines, such as bFGF and VEGF, IL-1, IL-6 and others, released by the KS cells (Ensoli et al., 1989; Ensoli et al., 1994a; Ensoli et al., 1994b; Fiorelli et al., 1995; Samaniego et al., 1995; Samaniego et al., 1997; Sgadari et al., 2000). In fact, at least in initial phase, KS is a reactive angioproliferative diseases and not a true neoplasm (Ensoli and Sturzl, 1998).
At the time of sacrifice, the sites of inoculation were examined to check for the presence of macroscopic angioproliferative KS-like lesions as described in the key to Table 1. Here are listed the number (No.) of mice that developed lesions with respect to the number (No.) of mice inoculated, and the percentage (%) of mice that developed lesions.

[5] = system: KS-like lesions induced by KS cells (KS12); experiment: Regression of KS-like lesions induced by KS cells in nude mice, no drug pre-treatment; type: in vivo; conditions: treatment started on the day of KS cell inoculation, 5 days
Protocol: Indinavir and saquinavir can also promote KS regression in the absence of any drug pre-treatment. […] Treatment was then continued for 5 days, until sacrifice. The mean size (cm^2) of the lesions present at the injection site evaluated by daily caliper measurement and calculated as the product of the two major lesion diameters is shown.
To determine whether HIV-PI can also promote KS regression in the absence of any drug pre-treatment, experiments were also performed by treating mice with HIV-PI at the time of KS cell inoculation.

[6] = system: lesions promoted by bFGF and HIV-1 Tat combined; experiment: KS-like lesions promoted by bFGF and HIV-1 Tat combined in nude mice; type: in vivo; conditions: bFGF 1 μg + Tat 10 μg
Description: Here are listed the number (N.) of mice that developed lesions with respect to the number (N.) of mice inoculated, and the percentage (%) of mice that developed lesions.

bFGF = bFGF production by KS cells (ELISA); type: cell-based, human; conditions: 0.1, 1 and 10 μM; 5 days + 24 hours
Protocol: (§3) After 24 hours of incubation, the supernatants of the cultures were tested by ELISA (R & D Systems, Minneapolis, Minn., USA) to determine the quantity of IL-6 present in the medium. The quantity of IL-6 is expressed in pg/ml of supernatant. The same tests were carried out for bFGF, VEGF, IL-1α and IL-1β by means of commercial ELISA kits.
(§4) KS cells secrete cytokines with an inflammatory, oedemigenic, angiogenic and proliferative activity with autocrine and paracrine effects (Ensoli and Stürzl, 1998). These factors mediate all the processes required for KS-like lesions formation (angiogenesis, cellular proliferation and invasion, inflammatory Infiltration, oedema) and vascular permeability and oedema induced by KS cells in nude mice. […] The quantity of bFGF, VEGF, IL-1 and IL-6 was dosed with immuno-enzymatic trials in the supernatants of the KS cells after 24 hours of culture in the absence of serum and in the continuous presence of the two HIV-PI (ELISA). […] Furthermore IL-6 plays a key role in the multicentric Cstleman's diseases and in the growth of lymphomas (Tosato et al., 1993; Peterson and Frizzera, 1993; Asou et al., 1998; Ramsay et al., 1994), another type of tumour whose incidence is reduced in patients treated with HIV-PI (International Collaboration on HIV and Cancer 2000).

IL-1β = IL-1β production by KS cells (ELISA); type: cell-based, human; conditions: 0.1, 1 and 10 μM, 5 days + 24 hours
Protocol: as §3, §4

| Structure (SMILES) | invasion in response to bFGF (smooth muscle cells) | VEGF-induced angiogenesis, % of the untreated VEGF control [1] [%] | bFGF-induced angiogenesis, % of the untreated bFGF control [1] [%] | Average vessel (number/mm^2 ± SD) ([1]; VEGF 100 ng) [number/mm^2] | Average vessel (number/mm^2 ± SD) ([1]; bFGF 1 μg, taxol 250 nM) [number/mm^2] | basal CAM vascularization [1] | toxicity in CAM [1] | migration of KS cells (KS cells [2]) | invasive capacity of KS cells (KS cells [3]) | No. of mice with macroscopic lesions/No. of inoculated mice [4] | mice with macroscopic lesions (%) [4] [%] | regression of KS-like lesions (lesion size) [5] | No. of macroscopic vascular lesions/No. of mice injected [6] | mice that developed lesions (%) [6] [%] | production of bFGF by KS cells (bFGF) | production of IL-1β by KS cells (IL-1β) | production of IL-1β by KS cells (IL-1β; listed as indinavir) |
| --- | --- | --- | --- | --- | --- | --- | --- | --- | --- | --- | --- | --- | --- | --- | --- | --- | --- |
| CC(C)(C)NC(=O)[C@@H]1C[C@@H]2CCCC[C@@H]2CN1C[C@@H](O)[C@H](Cc1ccccc1)NC(=O)[C@H](CC(N)=O)NC(=O)c1ccc2ccccc2n1 [Saquinavir, saquinavir] | inhibit | 11 | 19 | 5.39 ± 0.67 | 6.08 ± 1.84 | did not affect | not associated with toxicity | neither indinavir nor saquinavir had any effect | inhibit | 4/16 | 25 | promote the regression | 2/10 | 20 | reduced | reduced; also recorded: inhibited | – |
| CC(C)(C)NC(=O)[C@@H]1CN(Cc2cccnc2)CCN1C[C@@H](O)C[C@@H](Cc1ccccc1)C(=O)N[C@H]1c2ccccc2C[C@H]1O [Indinavir, indinavir] | inhibit | 36 | 42 | 7.70 ± 2.52 | 8.22 ± 2.54 | did not affect | not associated with toxicity | neither indinavir nor saquinavir had any effect | inhibit | 7/16 | 43 | promote the regression | 5/10 | 50 | reduced | inhibited | reduced |
